Measurements: publication PMC7942396, “Drug Repurposing Screen for Compounds Inhibiting the Cytopathic Effect of SARS-CoV-2” (Frontiers in Pharmacology, 2021)
Structures can show the parent of a compound that is named as a salt. Where two headings read alike, the source gives them in different places.

Columns and labels:
[1] = tested on: SARS-CoV-2 (USA_WA1/2020); assay: microbe, parasite or virus in culture; assay type: cell-based
[2] = in vitro; details: African green monkey
[3] = Severe acute respiratory syndrome coronavirus 2, Vero C1008, SARS-CoV-2 CPE assay, Vero E6 cells, confirmed anti-SARS-CoV-2 compounds, read-out: CPE EC50
[4] = Severe acute respiratory syndrome coronavirus 2, Vero C1008, SARS-CoV-2 CPE assay, Vero E6 cells, efficacy, read-out: CPE % Efficacy
[5] = Severe acute respiratory syndrome coronavirus 2, Vero C1008, SARS-CoV-2 CPE assay, Vero E6 cells, read-out: CPE % Efficacy
[6] = Severe acute respiratory syndrome coronavirus 2, Vero C1008, SARS-CoV-2 CPE assay, Vero E6 cells, read-out: CPE EC50
[7] = Severe acute respiratory syndrome coronavirus 2, Vero C1008, 72 h, read-out: CPE EC50
[8] = Severe acute respiratory syndrome coronavirus 2, Vero C1008, […], DMSO 0%, no-virus control 100%, hit confirmation, read-out: CPE % efficacy

Row | SMILES | EC50 [1, 3] | Emax [1, 4] | cytotoxicity at 72 h [2] | Emax [1, 5] | cytotoxicity [2] | also measured
1 | CC1CCCCN1CCCOC(=O)c1ccc(OC2CCCCC2)cc1 (stereo not drawn) [Cyclomethycaine] | 8.91 µM | 79.7% | 9.6% | – | – | CC50 at 72 h [2]: 17.8 µM
2 | Cc1cc(C2CCCCC2)n(O)c(=O)c1 [Ciclopirox] | 8.91 µM | 63.4% | 56.1% | – | – | CC50 at 72 h [2]: 2.51 µM
3 | C=CC(=O)N[C@H]1CCOC[C@H]1Nc1ncc2cc(-c3c(Cl)c(OC)cc(OC)c3Cl)ccc2n1 [BLU-554] | – | – | 0% | 31.5% | – | EC50 [1, 6]: 12.6 µM
4 | Cc1cccc(/C=N/Nc2cc(N3CCOCC3)nc(OCCc3ccccn3)n2)c1 [Apilimod, reference compound] | – | – | < 30% | – | – | EC50 [1, 7]: 0.023 µM; Emax [1, 8]: 104%
5 | c1ccc(-c2ccc(C(c3ccccc3)n3ccnc3)cc2)cc1 (stereo not drawn) [Bifonazole] | 10 µM | 36.4% | – | – | 24.5% | –
6 | Fc1ccc2[nH]ccc2c1-c1nc(N2CCOCC2)c2sc(CN3CCN(CC4CC4)CC3)cc2n1 [PI-3065] | – | – | 52.2% | 32.7% | – | EC50 [1, 6]: 14.1 µM; CC50 at 72 h [2]: 5.62 µM
7 | CCCC[C@@H](C=O)NC(=O)[C@H](CC(C)C)NC(=O)OCc1ccccc1 [Calpeptin, reference compound] | – | – | – | – | < 30% | EC50 [1, 7]: 0.5 µM; Emax [1, 8]: 112%
8 | CC[C@H](CC#N)OC(=O)N[C@@H](C)c1cccc(NC(=O)Nc2ccc(-c3cnco3)c(OC)c2)c1 [AVN944] | 11.2 µM | 95.3% | 50.3% | – | – | CC50 at 72 h [2]: 3.98 µM
9 | CC1=C(c2ccc(O)cc2)[C@H](c2ccc(OCCN3CCCCC3)cc2)Oc2cc(O)ccc21 [Acolbifene] | 5.62 µM | 56.1% | – | – | 54.1% | CC50 [2]: 12.6 µM
10 | CC#C[C@@H](CC(=O)O)c1ccc(OCc2cccc(-c3ccc(C(F)(F)F)cc3)c2)cc1 [AMG-837] | 11.2 µM | 106% | – | – | 20.2% | CC50 [2]: 15.8 µM
11 | COc1ccc2c(c1)[C@]1(C[C@H]1c1ccc3c(/C=C/c4ccc(CN5C[C@@H](C)O[C@@H](C)C5)cc4)n[nH]c3c1)C(=O)N2 [CFI-400945] | 11.2 µM | 77.8% | 31.4% | – | – | –
12 | c1ccc(-c2cc(CCC3CCNCC3)c3ccccc3n2)cc1 [Pipequaline] | 10 µM | 33.3% | 108% | – | – | CC50 at 72 h [2]: 12.6 µM
13 | Fc1ccc(C(c2ccc(F)cc2)N2CCN(C/C=C/c3ccccc3)CC2)cc1 [Flunarizine, reference compound] | – | – | – | – | < 30% | Emax [1, 8]: 94.1%
14 | CN1CCC(CN2c3ccccc3Sc3ccccc32)C1 (stereo not drawn) [Methdilazine hydrochloride, reference compound] | – | – | – | – | < 30% | EC50 [1, 7]: 10 µM; Emax [1, 8]: 86.4%
15 | CCc1ccc(N(CC(C)C)S(=O)(=O)c2ccc(OCC3CCOCC3)c(CO)c2)cc1 [GSK-2981278] | – | – | 51.1% | 36% | – | EC50 [1, 6]: 14.1 µM; CC50 at 72 h [2]: 12.6 µM
16 | CCCc1cc(C)[nH]c(=O)c1CNC(=O)c1cc(-c2ccnc(N3CCN(C)CC3)c2)cc2c1cnn2C(C)C [GSK-343] | – | – | – | 51.7% | 16.6% | EC50 [1, 6]: 14.1 µM; CC50 [2]: 10 µM
17 | CC(=O)O[C@@H]1C[C@H](O)[C@@]23CO[C@@H](O)[C@]1(C)[C@@H]2C[C@@H](O)[C@]1(C)[C@@H]3C(=O)[C@H](OC(C)=O)[C@@]2(C)[C@H](c3ccoc3)C[C@H]3O[C@]321 [Toosendanin] | 1.19 µM | 88.9% | – | – | 40.9% | CC50 [2]: 2.66 µM
18 | C=C1C(=O)[C@]23[C@H](O)[C@H]1CC[C@H]2[C@@]12CO[C@]3(O)[C@@H](O)[C@@H]1C(C)(C)CC[C@@H]2O [Oridonin] | – | – | – | 130% | 27.4% | EC50 [1, 6]: 11.2 µM
19 | CCCN(CCC)C(=O)C(CCC(=O)OCCCN1CCN(CCOC(=O)Cc2c(C)n(C(=O)c3ccc(Cl)cc3)c3ccc(OC)cc23)CC1)NC(=O)c1ccccc1 (stereo not drawn) [Proglumetacin, reference compound] | – | – | < 30% | – | – | EC50 [1, 7]: 10 µM; Emax [1, 8]: 87.6%

Row | SMILES | EC50 [1, 3] | Emax [1, 4] | cytotoxicity at 72 h [2] | Emax [1, 5] | cytotoxicity [2] | also measured
20 | CC(CN(C)C)CN1c2ccccc2CCc2ccccc21 (stereo not drawn) [Trimipramine maleate] | 10 µM | 51.8% | – | – | 19.8% | CC50 [2]: 15.8 µM
21 | COC(=O)[C@H]1[C@H]2C[C@@H]3c4[nH]c5cc(OC)ccc5c4CCN3C[C@H]2C[C@@H](OC(=O)/C=C/c2ccc(O)c(OC)c2)[C@@H]1OC [Rescimetol, reference compound] | – | – | < 30% | – | – | EC50 [1, 7]: 8.9 µM; Emax [1, 8]: 81.8%
22 | C[C@@H](C(=O)Nc1ccc(Cl)cc1)C1CCC(c2ccnc3ccc(F)cc23)CC1 (stereo partly drawn) [BMS-986205] | – | – | – | 69.8% | 37.7% | –
23 | COc1c(C)cnc(Cn2cnc3c(Cl)nc(N)nc32)c1C [CNF-2024] | 2.24 µM | 51.3% | – | – | 21.1% | CC50 [2]: 0.35 µM
24 | Cc1cn(CCN2CCN(c3ccccc3-c3cc(C#N)cc(C(=O)NCCCN4CCCC4)c3)CC2)c2ccccc12 [LLY-507] | 3.16 µM | 59.6% | 108% | – | – | CC50 at 72 h [2]: 12.6 µM
25 | CCCCc1oc2ccccc2c1C(=O)c1cc(I)c(OCCN(CC)CC)c(I)c1 [Amiodarone hydrochloride, reference compound] | – | – | – | – | < 30% | Emax [1, 8]: 100%
26 | CN1[C@@H]2CC[C@H]1C[C@@H](OC(c1ccccc1)c1ccccc1)C2 [Benztropine mesylate] | – | – | – | 59% | 0% | –
27 | COc1cc2nc(N3CCN(C(=O)C4COc5ccccc5O4)CC3)nc(N)c2cc1OC (stereo not drawn) [Doxazosin mesylate] | – | – | – | 86.6% | 0% | EC50 [1, 6]: 14.1 µM
28 | N#Cc1ccc2c(c1)N(CCCN1CCC(O)CC1)c1ccccc1S2 [PERICIAZINE] | – | – | – | 107% | 23.1% | EC50 [1, 6]: 12.6 µM
29 | CC(/C=C/[C@@H]1C[C@]1(C)c1ccc2c(c1)C(C)(C)CCC2(C)C)=C\C(=O)O [AGN-194204] | 11.2 µM | 57% | 36.8% | – | – | –
30 | CN(C)CCC=C1c2ccccc2C=Cc2ccccc21 [Cyclobenzaprine hydrochloride] | – | – | – | – | 23.9% | Emax ([1]; Severe acute respiratory syndrome coronavirus 2, Vero C1008, read-out: CPE % Efficacy): 77.2%; EC50 ([1]; Severe acute respiratory syndrome coronavirus 2, Vero C1008, read-out: CPE EC50 (uM)): 12.6 µM
31 | CN(C)CC/C=C1\c2ccccc2CSc2ccccc21 [Dosulepin hydrochloride] | – | – | – | 30.8% | 17.2% | EC50 [1, 6]: 14.1 µM; CC50 [2]: 12.6 µM
32 | CN1CCN(CCCN2c3ccccc3Sc3ccc(Cl)cc32)CC1 [Prochlorperazine dimaleate] | – | 107% | – | – | 103% | CC50 [2]: 22.4 µM
33 | O=c1[nH]c2ccccc2n1CCCN1CCN(C(c2ccccc2)c2ccccc2)CC1 [Oxatomide] | 10 µM | 83.9% | 31.3% | – | – | –
34 | CN1CCN(C(c2ccccc2)c2ccc(Cl)cc2)CC1 (stereo not drawn) [Chlorcyclizine] | – | – | 18% | 67.4% | – | EC50 [1, 6]: 12.6 µM; CC50 at 72 h [2]: 22.4 µM
35 | CC(C)(O)CNc1ncc(-c2ccnc(Nc3ccnc(Cl)c3)n2)c(CC2CC2)n1 [VPS34-IN1, reference compound] | – | – | – | – | – | Shape of concentration-response in the CPE assay ([1]; Figure 3): bell-shaped concentration-responses due to cytotoxicity; EC50 [1, 7]: 0.63 µM; Emax [1, 8]: 103%; CC50 [2]: 10 µM
36 | CN1CC[C@@H](c2c(O)cc(O)c3c(=O)cc(-c4ccc(C(F)(F)F)cc4Cl)oc23)[C@@H]1CO [Voruciclib] | – | – | – | 39.2% | 12.9% | EC50 [1, 6]: 14.1 µM
37 | COc1ccc(-c2csc(NC(=O)[C@H]3CCCCN3S(=O)(=O)c3ccc(C)cc3)n2)cc1 [ML277] | 10 µM | 45.4% | – | – | 0% | –
38 | COc1c(-c2ccc3cc(NS(C)(=O)=O)ccc3c2)cc(-n2ccc(=O)[nH]c2=O)cc1C(C)(C)C [ABT-333] | – | – | 42.5% | 48.7% | – | EC50 [1, 6]: 12.6 µM
